Consider one substance from patent US6632794B1, “Insulin-like growth factor agonist molecules” (Genentech, Inc., priority 1997, dated 2003).

For experiment [1], the target named is T1, human Type 1 IGF receptor (Homo sapiens, UniProt P08069).
T1 construct: host or cells: MCF-7
Nature of the experiment: KIRA for phosphorylation of the human Type 1 receptor in MCF-7 cells. It is filed as cell-based. The note with it: substance alone.

Experiment [2] has as its system hypophysectomized rats. Kind of experiment: Long-term administration to hypophysectomized rats. It counts as in vivo, rat. To be noted: one week. The text has this:
Young female SD rats were hypophysectomized at Taconic Laboratories and delivered several days later. The rats were then weighed frequently and those whose weight increased or decreased by more than 7 grams between 2 and 3 weeks following hypophysectomy were excluded from the study. Twenty-five rats were grouped randomly into five groups based on their body weight, and then randomly assigned to cages, with four rats per cage. The animals were allowed ad libitum access to food and water and housed in a room controlled for temperature and lighting.
1) Excipient pump, excipient injections;
2) (Leu^24,Ala^31)hIGF-I (10 μg/day, by SC minipump), excipient injections;
3) (Leu^24,Ala^31)hIGF-I (50 μg/day, by SC minipump), excipient injections;
4) Recombinant human GH (NUTROPIN™ brand from Genentech, Inc., 20 μg/day, by SC injection, two injections each of 10 μg/day), excipient minipump; or
5) (Leu^24,Ala^31)hIGF-I (50 μg/day, by SC minipump) plus recombinant human GH (20 μg/day, by SC injection, two injections each of 10 μg/day).
The rats were dosed for one week.
The mutant (Leu^24,Ala^31)hIGF-I was administered by osmotic minipumps (ALZET 2001™, Alza, Palo Alto, Calif.), which were placed in a subcutaneous tunnel in the dorsal neck region of the rats while they were anesthetized with KETAMINE™/XYLAZINE™ anesthesia. The pumps were filled with solutions so that the calculated daily dose was 50 μg or 10 μg, assuming that 24 μl of solution was delivered each day for one week.
Recombinant human GH was administered for one week by twice daily SC injections of 10 μg in 100 μl volume.
Body weights were measured daily in the morning. At the end of the week of dosing the animals were anesthetized via CO2 and exsanguinated via cardiac puncture. The remaining blood was allowed to clot and serum was separated and stored for further analysis.
Spleen, thymus, heart, liver, kidney, and perirenal fat were removed and weighed. The tibia was removed and fixed in neutral buffered formalin for histological measurement of epiphyseal plate width.
Serum chemistries were measured on an automated Chem I analyzer. Serum insulin concentration was measured using an RIA Kit supplied by Linco, Inc. To measure the IGF-I concentrations the serum was extracted using acid ethanol and the supernatant diluted to neutrality and assayed for IGF-I by RIA.
Tibia were sectioned longitudinally, stained with Toluene Blue, and mounted on microscope slides. The tibial epiphyseal plate width was measured using an ocular micrometer attached to a microscope.
Data were analyzed statistically by analysis of variance using one factor and two factor ANOVA.

In experiment [3] the target is T2, Type 1 IGF receptor (derived from placental membranes) (Homo sapiens, UniProt P08069).
T2 construct: Type 1 IGF receptor (derived from placental membranes); host or cells: placental membranes
T2 sequence (P08069 31-736 limits assumed): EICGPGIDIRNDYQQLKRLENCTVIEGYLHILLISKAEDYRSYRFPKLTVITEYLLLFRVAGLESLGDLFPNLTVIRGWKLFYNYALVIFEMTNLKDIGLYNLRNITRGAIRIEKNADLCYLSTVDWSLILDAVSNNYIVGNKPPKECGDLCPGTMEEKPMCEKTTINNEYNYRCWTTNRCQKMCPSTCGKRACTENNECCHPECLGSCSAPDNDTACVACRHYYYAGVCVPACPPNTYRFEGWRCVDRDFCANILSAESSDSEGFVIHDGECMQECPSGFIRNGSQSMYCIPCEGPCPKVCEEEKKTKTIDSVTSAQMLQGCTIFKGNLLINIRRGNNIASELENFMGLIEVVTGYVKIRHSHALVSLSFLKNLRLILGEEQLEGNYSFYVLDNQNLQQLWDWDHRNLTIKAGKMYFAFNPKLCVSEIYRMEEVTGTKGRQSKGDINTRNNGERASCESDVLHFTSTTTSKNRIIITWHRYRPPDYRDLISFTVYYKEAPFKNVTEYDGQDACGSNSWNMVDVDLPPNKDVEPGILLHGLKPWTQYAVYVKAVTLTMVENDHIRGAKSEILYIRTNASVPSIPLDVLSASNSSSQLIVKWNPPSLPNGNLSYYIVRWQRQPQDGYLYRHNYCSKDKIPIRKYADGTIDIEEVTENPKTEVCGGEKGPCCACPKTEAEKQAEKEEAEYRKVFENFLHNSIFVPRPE
T2 sequence (P08069 741-1367 partner limits assumed): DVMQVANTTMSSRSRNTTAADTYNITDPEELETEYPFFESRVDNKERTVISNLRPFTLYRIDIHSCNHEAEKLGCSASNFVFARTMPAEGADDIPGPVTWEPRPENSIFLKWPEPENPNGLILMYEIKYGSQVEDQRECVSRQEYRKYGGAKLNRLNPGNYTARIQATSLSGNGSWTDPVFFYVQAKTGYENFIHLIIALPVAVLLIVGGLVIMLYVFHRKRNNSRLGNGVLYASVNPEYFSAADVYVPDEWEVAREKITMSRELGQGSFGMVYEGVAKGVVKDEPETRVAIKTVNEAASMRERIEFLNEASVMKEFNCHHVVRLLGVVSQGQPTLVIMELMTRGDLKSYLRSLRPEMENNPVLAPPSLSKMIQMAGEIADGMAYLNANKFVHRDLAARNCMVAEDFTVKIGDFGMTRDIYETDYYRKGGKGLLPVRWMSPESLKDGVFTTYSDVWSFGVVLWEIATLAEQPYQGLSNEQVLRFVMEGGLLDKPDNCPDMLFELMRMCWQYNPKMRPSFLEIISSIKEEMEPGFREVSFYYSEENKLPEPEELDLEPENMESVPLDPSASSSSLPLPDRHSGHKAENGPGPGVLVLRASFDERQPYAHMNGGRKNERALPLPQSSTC
The note with it: Type 1 IGF receptor from placental membranes; Bayne et al.; read-out: half maximal inhibition of ligand binding; cited from earlier work.

T1 sequence (P08069 31-736 limits assumed): as the sequence (P08069 31-736 limits assumed) above
T1 sequence (P08069 741-1367 partner limits assumed): as the sequence (P08069 741-1367 partner limits assumed) above

Regarding (Leu^24,Ala^31)hIGF-I, in experiment [1], the “phosphorylation of the IGF-I receptor (KIRA)” value is listed as “did not cause any change in receptor phosphorylation”. Besides, the “blood levels of endogenous rat IGF-I” value in experiment [2] is “lower”. Besides, the entries for the “total IGF-I (rat and human) in blood” value in experiment [2] (IGF agonist 10 μg) and in experiment [2] (IGF agonist 50 μg alone or with GH) were “not a rise in total IGF” and “rise in total IGF-I”, respectively. The body weight gain entry was “mean weight gain that was numerically smaller than that of the control group” in experiment [2] (IGF agonist 10 μg/day SC minipump) and “only a small amount of activity” in experiment [2] (IGF agonist 50 μg/day SC minipump, hGH 20 μg/day SC, or both). In addition, in experiment [2] (IGF agonist 50 μg/day, hGH 20 μg/day, or both), the absolute thymus weight result is given as “increased”. Besides, the “absolute and relative heart weight” value in experiment [2] (IGF agonist 10 and 50 μg, hGH 20 μg/day, or combination) is “significant increase in the absolute and the relative size of the heart”. For the same substance, the absolute spleen weight entry in experiment [2] (IGF mutant 10 and 50 μg/day, hGH 20 μg/day, or hGH plus 50 μg/day) is given as “increased by both doses”. Further, the “bone growth (tibial epiphyseal plate width)” value in experiment [2] (low-dose mutant (10 μg/day)) is “did not increase bone growth”; in experiment [2] (mutant 50 μg/day alone or with rhGH), “significant increase in bone growth”. The IC50 in experiment [3] is 2000 nM.
